Experimental data reported in patent publication US20170166555A1, “FUNCTIONALISED AND SUBSTITUTED INDOLES AS ANTI-CANCER AGENTS” (Novogen Limited, priority 2013, published 2017).
Where two headings read alike, the source gives them in different places.

Assays:
Test in all cases: Anti-proliferative assay, cell-titre luminescent reagent, 72 h (GVK-BIO)
Format in all cases: cell-based
[1] = system: A549 non-small cell lung carcinoma cells; conditions: Homo sapiens, read-out: IC50/μM Lung (NSLC) A549
Procedure: (§1) The ability of compounds 4001, 4002, 4008, 4010, 4011, 4013-4015, 4018, 4026, 4045-4113 and 4115-4127 to inhibit the proliferation of cancer cells representative of neuroblastoma, melanoma, prostate cancer, colorectal cancer, non-small cell lung carcinoma, and triple negative breast cancer was assessed. These studies were conducted by contract research (GVK-BIO). Briefly, a pre-determined number of cells as calculated from cell growth assays for each of the cell lines employed were seeded into their respective culture medium (using ATCC culture parameters—http://www.atcc.org) and cultured for 24 h at 37° C. and 5% CO2 in 96-well culture plates. Once attached, each cell line was then exposed to various concentrations of each respective analogue (30, 3, 0.3 and 0.03 μM for compounds in Tables 2, 3 and 4; 30, 10, 3, 1, 0.3 and 0.1 μM for compounds in Table 5), cultured for a further 72 h and exposed to cell-titre luminescent reagent (100 μL/well) for a further 30 min). Luminescence was captured using an EnVision multilabel reader and the data for each analogue concentration compared against no treatment control. For compounds in Tables 2-4, semi-log plots of Percent of Control versus concentration were prepared and IC50 determined using linear regression analysis. For compounds in Table 5, cell viability was normalized to control (vehicle alone) and dose-response curves, and half maximal effective concentration (EC50) values were determined using Graph Pad Prism 6 (nonlinear regression sigmoidal dose-response variable slope).

[2] = system: SK-N-SH neuroblastoma cells; conditions: Homo sapiens
Procedure: as §1

[3] = system: MDA-MB-231 triple negative breast cancer cells; conditions: Homo sapiens
Procedure: as §1

[4] = system: DU145 prostate cancer cells; conditions: Homo sapiens
Procedure: as §1

SK-Mel-28 melanoma cells = conditions: Homo sapiens
Procedure: as §1

[5] = system: PC3 prostate cancer cells
Procedure: as §1

[6] = system: CaCo2 colorectal cancer cells
Procedure: as §1

[7] = A549, 72 h, 30, 3, 0.3 and 0.03 μM, linear regression (Tables 2-4)
[8] = SK-N-SH, 30, 3, 0.3 and 0.03 μM, linear regression (Tables 2-4)
[9] = MDA-MB-231, 72 h, 30, 3, 0.3 and 0.03 μM, linear regression (Tables 2-4)
[10] = DU-145, 72 h, 30, 3, 0.3 and 0.03 μM, linear regression (Tables 2-4)
[11] = SK-MEL-28, 72 h, 30, 3, 0.3 and 0.03 μM, linear regression (Tables 2-4)
[12] = 30, 3, 0.3 and 0.03 μM, linear regression (Tables 2-4)
[13] = Homo sapiens, Caco-2, 72 h, 30, 3, 0.3 and 0.03 μM, linear regression (Tables 2-4)
[14] = A549, 72 h, 30, 10, 3, 1, 0.3 and 0.1 μM, nonlinear regression (Table 5)
[15] = SK-N-SH, 30, 10, 3, 1, 0.3 and 0.1 μM, nonlinear regression (Table 5)
[16] = MDA-MB-231, 72 h, 30, 10, 3, 1, 0.3 and 0.1 μM, nonlinear regression (Table 5)
[17] = DU-145, 72 h, 30, 10, 3, 1, 0.3 and 0.1 μM, nonlinear regression (Table 5)
[18] = SK-MEL-28, 72 h, 30, 10, 3, 1, 0.3 and 0.1 μM, nonlinear regression (Table 5)
[19] = 30, 10, 3, 1, 0.3 and 0.1 μM, nonlinear regression (Table 5)
[20] = Homo sapiens, Caco-2, 72 h, 30, 10, 3, 1, 0.3 and 0.1 μM, nonlinear regression (Table 5)

SMILES	IC50 [1, 7]	IC50 [2, 8]	IC50 [3, 9]	IC50 [4, 10]	IC50 (SK-Mel-28 melanoma cells; [11])	IC50 [5, 12]	IC50 [6, 13]	IC50 [1, 14]	IC50 [2, 15]	IC50 [3, 16]	IC50 [4, 17]	IC50 (SK-Mel-28 melanoma cells; [18])	IC50 [5, 19]	IC50 [6, 20]	IC50 [6, 12]
Cc1c(C)n(CCCN(C)C)c2ccc(C(=O)N3CCN(CCc4ccccc4)CC3)cc12 [Compound 4018, (1-(3-(dimethylamino)propyl)-2,3-dimethyl-1H-indol-5-yl)(4-phenethylpiperazin-1-yl)methanone]	> 30 µM	> 30 µM	> 30 µM	> 30 µM	67.3 µM	> 30 µM	> 30 µM								
CN(C)CCCn1ccc2cc(Oc3ccc(C(=O)Nc4ccc(F)cc4)cc3)ccc21 [Compound 4088, 4-((1-(3-(dimethylamino)propyl)-1H-indol-5-yl)oxy)-N-(4-fluorophenyl)benzamide]	3.4 µM	3.4 µM	3.8 µM	3.3 µM	4.3 µM	3.5 µM	4.1 µM								
Cc1c(C)n(CCCN(C)C)c2ccc(Nc3cccc(C(=O)Nc4ccc5c(c4)OCO5)c3)cc12 [Compound 4074, N-(benzo[d][1,3]dioxol-5-yl)-3-((1-(3-(dimethylamino)propyl)-2,3-dimethyl-1H-indol-5-yl)amino)benzamide]	2.5 µM	1.3 µM	1.5 µM	2.8 µM	2.7 µM	22.7 µM	2.4 µM								
Cc1c(C)n(CCCN2CCN(C)CC2)c2ccc(C(=O)N3CCN(CCc4cccc(O)c4)CC3)cc12 [Compound 4126, (2,3-dimethyl-1-(3-(4-methylpiperazin-1-yl)propyl)-1H-indol-5-yl)(4-(3-hydroxyphenethyl)piperazin-1-yl)methanone]								> 30 µM	> 30 µM	> 30 µM	> 30 µM	> 30 µM	> 30 µM	> 30 µM	
COc1ccc(NC(=O)c2cccc(Cc3ccc4c(ccn4CCCN(C)C)c3)c2)cc1 [Compound 4046, 3-((1-(3-(dimethylamino)propyl)-1H-indol-5-yl)methyl)-N-(4-methoxyphenyl)benzamide]	1.7 µM	3.2 µM	1.9 µM	2.6 µM	1.9 µM	1.1 µM	3.2 µM								
CN(C)CCCn1ccc2cc(Cc3ccc(C(=O)Nc4ccc5c(c4)OCO5)cc3)ccc21 [Compound 4079, N-(benzo[d][1, 3]dioxol-5-yl)-4-((1-(3-(dimethylamino)propyl)-1H-indol-5-yl)methyl)benzamide]	3.1 µM	2.9 µM	4.3 µM	3.1 µM	2.8 µM	1.8 µM	> 30 µM								
Cc1c(C)n(CCCN(C)C)c2ccc(Cc3cccc(C(=O)Nc4ccccc4)c3)cc12 [Compound 4055]	4.7 µM	4.6 µM	4.7 µM	4.5 µM	5.1 µM	7.9 µM	6.8 µM								
COc1cccc(NC(=O)c2ccc(Cc3ccc4c(ccn4CCCN(C)C)c3)cc2)c1 [Compound 4081, 4-((1-(3-(dimethylamino)propyl)-1H-indol-5-yl)methyl)-N-(3-methoxyphenyl)benzamide]	2.9 µM	1.6 µM	2.5 µM	2.9 µM	2.3 µM	2.1 µM	3.1 µM								
CN(C)CCCn1ccc2cc(Nc3cccc(C(=O)Nc4ccc(F)cc4)c3)ccc21 [Compound 4067, 3-((1-(3-(dimethylamino)propyl)-1H-indol-5-yl)amino)-N-(4-fluorophenyl)benzamide]	4 µM	3.3 µM	3.8 µM	4.3 µM	2.5 µM	4.3 µM									4.3 µM
COc1cccc(CCN2CCN(C(=O)c3ccc4c(c3)c(C)c(C)n4CCCN3CCN(C)CC3)CC2)c1 [Compound 4125, (2,3-dimethyl-1-(3-(4-methylpiperazin-1-yl)propyl)-1H-indol-5-yl)(4-(3-methoxyphenethyl)piperazin-1-yl)methanone]	19.4 µM	14.9 µM	33.2 µM	> 30 µM	25 µM	> 30 µM	> 30 µM								
COc1cccc(NC(=O)c2ccc(Cc3ccc4c(c3)c(C)c(C)n4CCCN(C)C)cc2)c1 [Compound 4086, 4-((1-(3-(dimethylamino)propyl)-2,3-dimethyl-1H-indol-5-yl)methyl)-N-(3-methoxyphenyl)benzamide]								5 µM	5.7 µM	6.2 µM	4.3 µM	5.2 µM	4.8 µM	7.6 µM	
Cc1c(C)n(CCCN2CCN(C)CC2)c2ccc(CN3CCN(CCc4ccc(O)cc4)CC3)cc12 [Compound 4112, 4-(2-(4-((2,3-dimethyl-1-(3-(4-methylpiperazin-1-yl)propyl)-1H-indol-5-yl)methyl)piperazin-1-yl)ethyl)phenol]								5.9 µM	7 µM	11.8 µM	8.3 µM	13 µM	8.4 µM	17.5 µM	
Cc1c(C)n(CCCN(C)C)c2ccc(C(=O)N3CCN(CCc4ccc(F)cc4)CC3)cc12 [Compound 4118, (1-(3-(dimethylamino)propyl)-2,3-dimethyl-1H-indol-5-yl)(4-(4-fluorophenethyl)piperazin-1-yl)methanone]	> 30 µM	31.9 µM	> 30 µM	> 30 µM	18.1 µM	> 30 µM	> 30 µM								
Cc1c(C)n(CCCN(C)C)c2ccc(Oc3ccc(C(=O)Nc4cccc(F)c4)cc3)cc12 [Compound 4096, 4-((1-(3-(dimethylamino)propyl)-2,3-dimethyl-1H-indol-5-yl)oxy)-N-(3-fluorophenyl)benzamide]	2.9 µM	3.7 µM	2.6 µM	3.3 µM	3.5 µM	2.5 µM	2.7 µM								
COc1cccc(NC(=O)c2cccc(Oc3ccc4c(c3)c(C)c(C)n4CCCN(C)C)c2)c1 [Compound 4065, 3-((1-(3-(dimethylamino)propyl)-2,3-dimethyl-1H-indol-5-yl)oxy)-N-(3-methoxyphenyl)benzamide]								4.6 µM	5.2 µM	5 µM	4.2 µM	5 µM	6.5 µM	6.5 µM	
Cc1c(C)n(CCCN(C)C)c2ccc(Cc3cccc(C(=O)Nc4ccc5c(c4)OCO5)c3)cc12 [Compound 4052, N-(benzo[d][1,3]dioxol-5-yl)-3-((1-(3-(dimethylamino)propyl)-2,3-dimethyl-1H-indol-5-yl)methyl)benzamide]	8 µM	31.9 µM	30 µM	13.8 µM	6.2 µM	11.1 µM	27.1 µM								
COc1cccc(CCN2CCN(Cc3ccc4c(c3)c(C)c(C)n4CCCN3CCN(C)CC3)CC2)c1 [Compound 4115, 5-((4-(3-methoxyphenethyl)piperazin-1-yl)methyl)-2,3-dimethyl-1-(3-(4-methylpiperazin-1-yl)propyl)-1H-indole]								8.8 µM	4.9 µM	3.4 µM	6.1 µM	1.1 µM	9.4 µM	6.2 µM	
